Measured values taken from ChEMBL document CHEMBL1130493, “Dimeric aminoglycosides: Design, synthesis and RNA binding” (Bioorg Med Chem Lett, 1997).

Columns and labels:
[1] = Compound was tested for the pseudo first-order rate constants for the inhibition of the cleavage step (k2) of the hammerhead ribozyme at a concentration of 10 uM
[2] = Compound was tested for the pseudo first-order rate constants for the inhibition of the cleavage step (k2) of the hammerhead ribozyme at a concentration of 1 uM
[3] = Compound was tested for the pseudo first-order rate constants for the inhibition of the cleavage step (k2) of the hammerhead ribozyme at a concentration of 100 uM; not determined at this concentration
[4] = Compound was tested for the pseudo first-order rate constants for the inhibition of the cleavage step (k2) of the hammerhead ribozyme at a concentration of 100 uM; too active and complete inhibition is observed
[5] = Compound was tested for the pseudo first-order rate constants for the inhibition of the cleavage step (k2) of the hammerhead ribozyme at a concentration of 100 uM
[6] = Compound was tested for the pseudo first-order rate constants for the inhibition of the cleavage step (k2) of the hammerhead ribozyme at a concentration of 100 uM; too active and complete inhibition is observed; remark: listed apart in the source
[7] = Compound was tested for the pseudo first-order rate constants for the inhibition of the cleavage step (k2) of the hammerhead ribozyme at a concentration of 1 uM; not determined at this concentration

SMILES	K2 [1] [min⁻¹]	K2 [2] [min⁻¹]	K2 [3]	K2 [4]	K2 [5] [min⁻¹]	K2 [6]	K2 [7]
NCC1O[C@H](O[C@H]2[C@@H](O)[C@H](O[C@H]3[C@H](O)[C@@H](N)C[C@@H](N)[C@@H]3O[C@H]3O[C@H](CN)[C@@H](O)[C@H](O)[C@H]3N)O[C@@H]2CSCCOCCSSCCOCCSC[C@H]2O[C@H](O[C@@H]3[C@@H](O)[C@H](O[C@H]4O[C@H](CN)[C@@H](O)C[C@H]4N)[C@@H](N)C[C@H]3N)[C@H](O)[C@@H](N)[C@@H]2O)[C@H](N)[C@@H](O)[C@@H]1O (stereo partly specified)	0.008	0.046	–	–	–	–	–
NCC1O[C@H](O[C@H]2[C@@H](O)[C@H](O[C@H]3[C@H](O)[C@@H](N)C[C@@H](N)[C@@H]3O[C@H]3O[C@H](CN)[C@@H](O)[C@H](O)[C@H]3N)O[C@@H]2CSCCOCCSSCCOCCSC[C@H]2O[C@@H](O[C@H]3[C@H](O)[C@@H](N)C[C@@H](N)[C@@H]3O[C@H]3O[C@H](CN)[C@@H](O)[C@H](O)[C@H]3N)[C@H](O)[C@@H]2O[C@@H]2OC(CN)[C@H](O)[C@@H](O)[C@@H]2N)[C@H](N)[C@@H](O)[C@@H]1O (stereo partly specified)	0.003	0.041	No inhibition	–	–	–	–
NC[C@H]1O[C@H](O[C@H]2[C@H](O)[C@@H](O[C@H]3O[C@H](CSCCOCCSSCCOCCSC[C@H]4O[C@H](O[C@@H]5[C@@H](O)[C@H](O[C@H]6O[C@H](CN)[C@@H](O)C[C@H]6N)[C@@H](N)C[C@H]5N)[C@H](O)[C@@H](N)[C@@H]4O)[C@@H](O)[C@H](N)[C@H]3O)[C@H](N)C[C@@H]2N)[C@H](O)[C@@H](O)[C@@H]1O	0.014	–	–	Too active and complete inhibition is observed	–	–	–
NC[C@H]1O[C@H](O[C@H]2[C@H](O)[C@@H](O[C@H]3O[C@H](CSCCOCCSSCCOCCSC[C@H]4O[C@H](O[C@@H]5[C@@H](O)[C@H](O[C@H]6O[C@H](CN)[C@@H](O)[C@H](O)[C@H]6O)[C@@H](N)C[C@H]5N)[C@H](O)[C@@H](N)[C@@H]4O)[C@@H](O)[C@H](N)[C@H]3O)[C@H](N)C[C@@H]2N)[C@H](O)[C@@H](O)[C@@H]1O	0.017	–	–	Too active and complete inhibition is observed	–	–	–
NC[C@H]1OC(O[C@H]2[C@H](O)[C@@H](OC3O[C@H](CO)[C@@H](O)[C@H](N)[C@H]3O)[C@H](N)C[C@@H]2N)[C@H](N)C[C@@H]1O (single isomer, unassigned) [TOBRAMYCIN]	0.051	–	–	Too active and complete inhibition is observed	0.012	–	–
NC[C@@H]1O[C@H](O[C@H]2[C@@H](O)[C@H](O[C@@H]3[C@@H](O)[C@H](N)C[C@H](N)[C@H]3O[C@H]3O[C@H](CN)[C@@H](O)[C@H](O)[C@H]3N)O[C@@H]2CO)[C@H](N)[C@@H](O)[C@@H]1O [FRAMYCETIN]	0.018	0.062	No inhibition	–	–	–	–
NC[C@H]1O[C@H](O[C@H]2[C@H](O)[C@@H](O[C@H]3O[C@H](CO)[C@@H](O)[C@H](N)[C@H]3O)[C@H](N)C[C@@H]2N)[C@H](O)[C@@H](O)[C@@H]1O [KANAMYCIN A]	–	–	–	Too active and complete inhibition is observed	0.058	Too active and complete inhibition is observed	–
NC[C@H]1O[C@H](O[C@H]2[C@H](O)[C@@H](O[C@H]3O[C@H](CSCCOCCSSCCOCCSC[C@H]4O[C@H](O[C@@H]5[C@@H](O)[C@H](O[C@H]6O[C@H](CN)[C@@H](O)C[C@H]6N)[C@@H](N)C[C@H]5N)[C@H](O)[C@@H](N)[C@@H]4O)[C@@H](O)[C@H](N)[C@H]3O)[C@H](N)C[C@@H]2N)[C@H](N)C[C@@H]1O [Tobramycin-Tobramycin]	0.011	–	–	Too active and complete inhibition is observed	–	–	No inhibition
